Literature values as cited in EP4437048B1, “ENERGY CURABLE INK, COATING AND PRIMER COMPOSITIONS CONTAINING HIGHLY ALKOXYLATED GLYCEROL ACRYLATES FOR RETORT PACKAGING APPLICATIONS” (Sun Chemical B.V., priority 2022, dated 2024).

Details: specific migration limit of the acrylate (Table 7)

SMILES: C=CC(=O)OCC(CC)(COCC(CC)(COC(=O)C=C)COC(=O)C=C)COC(=O)C=C [Di-TMPTA]
- SML: 10 ppb
